Here are results for 19 molecules from US8017612B2, “Piperazine compound and use thereof as a HCV polymerase inhibitor” (priority 2006, dated 2011).

For assay [1], the target named is T1, HCV polymerase (NS5B) type 1b (Hepatitis C virus genotype 1b, UniProt P26663).
T1 construct: a region encoding NS5B (J Virol 1991 March, 65(3), 1105-13, 544 amino acids after deletion of 47 amino acids on the C-terminal); 6xHis (C); made in house; host or cells: Escherichia coli
Put plainly: Assay of enzyme (HCV polymerase) inhibitory activity, type 1b enzyme. It counts as biochemical, HCV BK strain (type 1b). Conditions: HCV polymerase inhibitory activity IC50, 1b, type 1b enzyme. The gist of the method: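 NS5B from HCV BK strain (type 1b), C-terminal 47 aa deleted, C-terminal His6-tagged, E. coli-expressed, 0.5 μg/ml, with ~450 nt substrate RNA carrying the 3′ UTR (polyU, 3′X) at 5 μg/ml. Incubation 60 min at 25 °C with 50 μM ATP/GTP/CTP, 2 μM UTP plus [3H]UTP, pH 7.5 Tris.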

Assay [2] addresses T2, HCV polymerase (NS5B) type 1a (Hepatitis C virus genotype 1a, UniProt P26664).
T2 construct: made in house; host or cells: Escherichia coli (by the 'similar method' of the 1b enzyme)
Nature of the assay: Assay of enzyme (HCV polymerase) inhibitory activity, type 1a enzyme. It counts as biochemical, HCV type 1a (cloned from the blood of patients). Conditions: HCV polymerase inhibitory activity IC50, 1a, type 1a enzyme. An outline of the steps:
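Patient-derived type 1a NS5B (C-terminal 47-aa deletion, His-tagged, E. coli-expressed) at 1.5 μg/ml was reacted with 5 μg/ml 3′UTR-containing substrate RNA, 50 μM ATP/GTP/CTP, 2 μM UTP plus [3H]UTP, pH 7.5, 25° C for 60 min. TCA-precipitated RNA radioactivity was counted; IC50 from ± compound.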

Molecules are shown by their SMILES. Some results are limits rather than exact numbers.

As to `O=C(NCc1ccc(OC(F)(F)F)cc1)[C@H]1CN(c2nc3nc(C4CC4)ncc3s2)CCN1S(=O)(=O)c1ccc(OC(F)F)cc1` [Example 1016, (R)-4-(5-cyclopropyl-thiazolo[4,5-d]pyrimidin-2-yl)-1-(4-difluoromethoxy-benzenesulfonyl)-piperazine-2-carboxylic acid 4-trifluoromethoxy-benzylamide], the IC50 in assay [1] and in assay [2] was under 100 nM each time.

Turning to `O=C(NCc1ccc(OC(F)F)cc1)[C@H]1CN(c2nc3nc(C4CC4)ncc3s2)CCN1S(=O)(=O)c1ccc(OC(F)(F)F)cc1` [Example 1017, (R)-4-(5-cyclopropyl-thiazolo[4,5-d]pyrimidin-2-yl)-1-(4-trifluoromethoxy-benzenesulfonyl)-piperazine-2-carboxylic acid 4-difluoromethoxy-benzylamide], the IC50 in assay [1] and in assay [2] was under 100 nM throughout.

With `O=C(NCc1ccc(OC(F)F)cc1)[C@H]1CN(c2nc3nc(C4CC4)ncc3s2)CCN1S(=O)(=O)c1ccc(OC(F)(F)C(F)F)cc1` [Example 1018, (R)-4-(5-cyclopropyl-thiazolo[4,5-d]pyrimidin-2-yl)-1-[4-(1,1,2,2-tetrafluoro-ethoxy)-benzenesulfonyl]-piperazine-2-carboxylic acid 4-difluoromethoxy-benzylamide], the half-maximal inhibitory concentration (IC50) in assay [1] and in assay [2] was under 100 nM in each case.

Turning to `Cc1cc(=O)nc2sc(N3CCN(S(=O)(=O)c4ccc(OC(F)(F)F)cc4)[C@@H](C(=O)NCc4ccc(OC(F)(F)F)cc4)C3)nn12` [Example 1019, (R)-4-(5-methyl-7-oxo-7H-[1,3,4]thiadiazolo[3,2-a]pyrimidin-2-yl)-1-(4-trifluoromethoxy-benzenesulfonyl)-piperazine-2-carboxylic acid 4-trifluoromethoxy-benzylamide], the IC50 in assay [1] and in assay [2] was under 100 nM each time.

In the case of `O=C(NCc1ccc(OC(F)(F)F)cc1)[C@H]1CN(c2nc3nc(C4CC4)ncc3s2)CCN1S(=O)(=O)c1ccc(OC(F)(F)C(F)F)cc1` [Example 1020, (R)-4-(5-cyclopropyl-thiazolo[4,5-d]pyrimidin-2-yl)-1-[4-(1,1,2,2-tetrafluoro-ethoxy)-benzenesulfonyl]-piperazine-2-carboxylic acid 4-trifluoromethoxy-benzylamide], the IC50 in assay [1] and in assay [2] was under 100 nM throughout.

On to `Nc1nc(C(F)(F)F)nc2nc(N3CCN(S(=O)(=O)c4ccc(OC(F)(F)F)cc4)[C@@H](C(=O)NCc4ccc(OC(F)(F)F)cc4)C3)sc12` [Example 1021, (R)-4-(7-amino-5-trifluoromethyl-thiazolo[4,5-d]pyrimidin-2-yl)-1-(4-trifluoromethoxy-benzenesulfonyl)-piperazine-2-carboxylic acid 4-trifluoromethoxy-benzylamide], for which the IC50 in assay [1] and in assay [2] was under 100 nM throughout.

For `COc1nc(C(F)(F)F)nc2nc(N3CCN(S(=O)(=O)c4ccc(OC(F)(F)F)cc4)[C@@H](C(=O)NCc4ccc(OC(F)(F)F)cc4)C3)sc12` [Example 1022, (R)-4-(7-methoxy-5-trifluoromethyl-thiazolo[4,5-d]pyrimidin-2-yl)-1-(4-trifluoromethoxy-benzenesulfonyl)-piperazine-2-carboxylic acid 4-trifluoromethoxy-benzylamide], the IC50 in assay [1] and in assay [2] was 100 to 1000 nM throughout.

As to `O=C(NCc1ccc(OC(F)F)cc1)[C@H]1CN(c2nc3nc(C4CC4)ncc3s2)CCN1S(=O)(=O)c1ccc(C(F)(F)F)cc1` [Example 1023, (R)-4-(5-cyclopropyl-thiazolo[4,5-d]pyrimidin-2-yl)-1-(4-trifluoromethyl-benzenesulfonyl)-piperazine-2-carboxylic acid 4-difluoromethoxy-benzylamide], the IC50 in assay [1] and in assay [2] was under 100 nM each time.

`CC(C)(C)c1ncc2sc(N3CCN(S(=O)(=O)c4ccc(OC(F)(F)F)cc4)[C@@H](C(=O)NCc4ccc(OC(F)(F)F)cc4)C3)nc2n1` [Example 1024, (R)-4-(5-tert-butyl-thiazolo[4,5-d]pyrimidin-2-yl)-1-(4-trifluoromethoxy-benzenesulfonyl)-piperazine-2-carboxylic acid 4-trifluoromethoxy-benzylamide]: the half-inhibitory concentration (IC50) in assay [1] and in assay [2] was under 100 nM in each case.

Take `CC(C)(C)c1ncc2sc(N3CCN(S(=O)(=O)c4ccc(C(F)(F)F)cc4)[C@@H](C(=O)NCc4ccc(OC(F)(F)F)cc4)C3)nc2n1` [Example 1025, (R)-4-(5-tert-butyl-thiazolo[4,5-d]pyrimidin-2-yl)-1-(4-trifluoromethyl-benzenesulfonyl)-piperazine-2-carboxylic acid 4-trifluoromethoxy-benzylamide]: the IC50 in assay [1] and in assay [2] was under 100 nM each time.

In the case of `Cc1c(Cl)c(=O)nc2sc(N3CCN(S(=O)(=O)c4ccc(OC(F)(F)F)cc4)[C@@H](C(=O)NCc4ccc(OC(F)(F)F)cc4)C3)nn12` [Example 1026, (R)-4-(6-chloro-5-methyl-7-oxo-7H-[1,3,4]thiadiazolo[3,2-a]pyrimidin-2-yl)-1-(4-trifluoromethoxy-benzenesulfonyl)-piperazine-2-carboxylic acid 4-trifluoromethoxy-benzylamide], the half-maximal inhibitory concentration (IC50) in assay [1] and in assay [2] was under 100 nM throughout.

With `Cc1cc(=O)nc2sc(N3CCN(S(=O)(=O)c4ccc(OC(F)(F)F)cc4)[C@@H](C(=O)NCc4ccc(OC(F)F)cc4)C3)nn12` [Example 1027, (R)-4-(5-methyl-7-oxo-7H-[1,3,4]thiadiazolo[3,2-a]pyrimidin-2-yl)-1-(4-trifluoromethoxy-benzenesulfonyl)-piperazine-2-carboxylic acid 4-difluoromethoxy-benzylamide], the IC50 in assay [1] and in assay [2] was under 100 nM throughout.

Take `Cc1cc(=O)nc2sc(N3CCN(S(=O)(=O)c4ccc(C(F)(F)F)cc4)[C@@H](C(=O)NCc4ccc(OC(F)(F)F)cc4)C3)nn12` [Example 1028, (R)-4-(5-methyl-7-oxo-7H-[1,3,4]thiadiazolo[3,2-a]pyrimidin-2-yl)-1-(4-trifluoromethyl-benzenesulfonyl)-piperazine-2-carboxylic acid 4-trifluoromethoxy-benzylamide]: the IC50 in assay [1] and in assay [2] was under 100 nM each time.

Turning to `Cc1nc(C(N)=O)c2sc(N3CCN(S(=O)(=O)c4ccc(OC(F)(F)F)cc4)[C@@H](C(=O)NCc4ccc(OC(F)(F)F)cc4)C3)nc2n1` [Example 1029, 5-methyl-2-[(R)-4-(4-trifluoromethoxy-benzenesulfonyl)-3-(4-trifluoromethoxy-benzylcarbamoyl)-piperazin-1-yl]-thiazolo[4,5-d]pyrimidine-7-carboxylic acid amide], the results for the IC50 in assay [1] and in assay [2] were under 100 nM and 100 to 1000 nM, respectively.

On to `Cn1ncc2sc(N3CCN(S(=O)(=O)c4ccc(C(F)(F)F)cc4)[C@@H](C(=O)NCc4ccc(OC(F)(F)F)cc4)C3)nc2c1=O` [Example 1030, (R)-4-(5-methyl-4-oxo-4,5-dihydro-thiazolo[4,5-d]pyridazin-2-yl)-1-(4-trifluoromethyl-benzenesulfonyl)-piperazine-2-carboxylic acid 4-trifluoromethoxy-benzylamide], for which the IC50 in assay [1] and in assay [2] was under 100 nM in each case.

Turning to `O=C(NCc1ccc(OC(F)(F)F)cc1)[C@H]1CN(c2nn3c(=O)c(C(F)(F)F)nnc3s2)CCN1S(=O)(=O)c1ccc(OC(F)(F)F)cc1` [Example 1031, (R)-4-(4-oxo-3-trifluoromethyl-4H-[1,3,4]thiadiazolo[2,3-c][1,2,4]triazin-7-yl)-1-(4-trifluoromethoxy-benzenesulfonyl)-piperazine-2-carboxylic acid 4-trifluoromethoxy-benzylamide], the concentration for half-maximal inhibition (IC50) in assay [1] and in assay [2] was 100 to 1000 nM each time.

`Cc1cc(=O)nc2sc(N3CCN(S(=O)(=O)c4ccc(C(F)(F)F)cc4)[C@@H](C(=O)NCc4ccc(OC(F)F)cc4)C3)nn12` [Example 1032, (R)-4-(5-methyl-7-oxo-7H-[1,3,4]thiadiazolo[3,2-a]pyrimidin-2-yl)-1-(4-trifluoromethyl-benzenesulfonyl)-piperazine-2-carboxylic acid 4-difluoromethoxy-benzylamide]: the IC50 in assay [1] and in assay [2] was under 100 nM in each case.

As for `O=C(O)c1ncc2sc(N3CCN(S(=O)(=O)c4ccc(OC(F)(F)F)cc4)[C@@H](C(=O)NCc4ccc(OC(F)(F)F)cc4)C3)nc2n1` [Example 1033, 2-[(R)-4-(4-trifluoromethoxy-benzenesulfonyl)-3-(4-trifluoromethoxy-benzylcarbamoyl)-piperazin-1-yl]-thiazolo[4,5-d]pyrimidine-5-carboxylic acid], the half-maximal inhibitory concentration (IC50) in assay [1] and in assay [2] was under 100 nM each time.

For the molecule `Nc1nnnc2nc(N3CCN(S(=O)(=O)c4ccc(OC(F)(F)F)cc4)[C@@H](C(=O)NCc4ccc(OC(F)(F)F)cc4)C3)sc12` [Example 1034, (R)-4-(4-amino-thiazolo[4,5-d][1,2,3]triazin-6-yl)-1-(4-trifluoromethoxy-benzenesulfonyl)-piperazine-2-carboxylic acid 4-trifluoromethoxy-benzylamide], the IC50 in assay [1] and in assay [2] was under 100 nM each time.
